Here are results for one compound from paper PMC6557261 (Cell chemical biology, 2019).

The IC50 is the concentration that inhibits the measured activity by half.

One experiment concerns the target T1, peroxiredoxin 1 (Prx1) (Homo sapiens, UniProt Q06830).
T1 sequence (Q06830 2-199): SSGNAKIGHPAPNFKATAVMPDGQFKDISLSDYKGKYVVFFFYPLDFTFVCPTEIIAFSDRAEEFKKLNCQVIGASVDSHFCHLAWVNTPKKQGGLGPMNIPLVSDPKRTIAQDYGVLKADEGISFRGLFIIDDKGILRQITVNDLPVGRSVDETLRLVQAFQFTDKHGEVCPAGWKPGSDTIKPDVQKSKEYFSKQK
As to the kind of experiment: glutamine synthetase protection assay with recombinant Prx1. The format is biochemical.

A further experiment concerns the target T2, peroxiredoxin 2 (Prx2) (Homo sapiens, UniProt P32119).
T2 sequence (P32119 2-198): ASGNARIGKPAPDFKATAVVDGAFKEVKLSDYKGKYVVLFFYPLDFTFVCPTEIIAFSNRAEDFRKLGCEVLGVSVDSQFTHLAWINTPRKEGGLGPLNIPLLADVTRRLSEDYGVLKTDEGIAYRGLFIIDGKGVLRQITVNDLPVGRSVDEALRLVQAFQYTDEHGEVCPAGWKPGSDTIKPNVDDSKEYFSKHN
Briefly: glutamine synthetase protection assay with recombinant Prx2. It is filed as biochemical.

For the compound `CCC[C@H]1O[C@@H]2CC(=O)O[C@@H]2C2=C1C(=O)c1c(O)cccc1C2=O` [FB, frenolicin B], the half-maximal inhibitory concentration (IC50) was found to be 200 nM at peroxiredoxin 1 (Prx1) and 4200 nM at peroxiredoxin 2 (Prx2).
